Results as given in article PMC10783034, “Pharmacokinetic and pharmacodynamic evaluation of the atypical tetracyclines chelocardin and amidochelocardin in murine infection models” (Microbiology Spectrum, 2023).
In brackets after ≈: the same amount, converted by molar mass. Several values for one entry are separate records, joined by “and”; a condition that tells them apart may be missing. Equal entries are not always repeated.

Assays:
[1] = Pharmacokinetic studies in uninfected CD-1 mice (plasma and urine levels); format: in vivo; details: for epimerization in plasma and urine in vivo / urine concentrations at time points > 24 hours / plasma levels at 30 mg/kg IV compared with 15 mg/kg IV / urine levels at 30 mg/kg IV compared with 15 mg/kg IV: mice; for F (bioavailability) / AUC0-t / C0 / Cl/F_obs / MRT / Vz/F_obs / t1/2 (plasma half-life) / Tmax / Cmax: CD-1 mice
Description: CHD and CDCHD were administered in single PK studies at the doses of 15 mg/kg and 30 mg/kg IV, at 15 mg/kg SC, and 15 mg/kg PO. Up to 25 µL of blood was collected from the lateral tail vein (n = 3 per time point) and time points t = 0.5, 1, 2, 4, and 8 hours. For 15 mg/kg IV- and PO-administered compounds, blood was also collected at time points t = 24 and 48 hours. For IV- and SC-administered compounds, blood was also collected at t = 0.25 hours. At t = 24 hours (15 mg/kg SC, 30 mg/kg IV) or 72 hours (15 mg/kg IV and PO), animals were euthanized to collect blood. At every blood collection, time point spontaneous urine was collected as well. Whole blood was collected into Eppendorf tubes coated with 0.5 M EDTA and immediately spun down at 15,870× g for 10 min at 4°C. Then, plasma was transferred into a new Eppendorf tube and stored at −80°C until analysis.
First, a calibration curve was prepared by spiking different concentrations of CHD and CDCHD into mouse plasma or mouse urine (matrix for mouse PK or PD samples) from CD-1 mice. Caffeine was used as an internal standard. In addition, quality control samples (QCs) were prepared for CHD and CDCHD in plasma and urine. The following extraction procedures were used: 7.5 µL of a plasma or urine sample (calibration samples, QCs, PK or PD samples) was extracted with 37.5 µL of a mixture of methanol/acetonitrile (2:1) containing 12.5 ng/mL of glipizide as an internal standard for 5 min at 2,000 rpm on an Eppendorf MixMate® vortex mixer. Then samples were spun down at 15,870× g for 10 min. Supernatants were transferred to standard HPLC glass vials.
Samples were analyzed using an Agilent 1290 HPLC system coupled to an AB Sciex QTrap 6500 mass spectrometer. LC conditions were as follows: column: Agilent Zorbax Eclipse Plus C18, 50 × 2.1 mm, 1.8 µm; temperature: 30°C; injection volume: 5 µL per sample; flow rate: 700 µL/min. Samples were run under the following conditions. Solvents for acidic conditions: A: 100% water +0.1% formic acid; solvent B: 100% acetonitrile +0.1% formic acid. The gradient for CDCHD was as follows: 99% A at 0 min, 99% A until 1 min, 99%–50% A from 1 to 2.4 min, 50%–35% A from 2.4 to 2.7 min, 35–0% A from 2.7 until 4.5 min, 0% A until 6 min, 0-99% from 6 to 6.2 min, 99% A until 8.0 min. The gradient for CHD was as follows: 99%–90% A from 0 to 1 min, 90%–55% A from 1 to 2.3 min, 50%–40% A from 2.3 to 2.5 min, 40%–0% A from 2.5 to 4.5 min, 0% A until 6 min, 0%–99% A from 6 to 6.2 min, 99% A until 8.0 min. Mass transitions are depicted in Table S3. Peaks of PK and PD samples were quantified using the calibration curve. The accuracy of the calibration curve was determined using QCs independently prepared on different days. PK parameters were determined using a non-compartmental analysis with PKSolver ([55]).

K. pneumoniae ATCC 43816 = test system: K. pneumoniae ATCC 43816; parameters: method as in PMID 32962088; details: cited from earlier work
[2] = plasma, 15 mg/kg IV, for CHD active CHD only

SMILES | epimerization in plasma and urine in vivo ([1]; 15 mg/kg IV) | urine concentrations at time points > 24 hours ([1]; 15 mg/kg IV) | F (bioavailability) ([1]; 15 mg/kg PO, 15 mg/kg) | F (bioavailability) ([1]; 15 mg/kg SC, 15 mg/kg) | AUC0-t ([1]; plasma, 15 mg/kg IV) | C0 ([1]; plasma, 15 mg/kg IV) | Cl/F_obs ([1]; plasma, 15 mg/kg IV) [mL/min/kg] | MRT ([1]; plasma, 15 mg/kg IV) [h] | Vz/F_obs ([1]; plasma, 15 mg/kg IV) [L/kg] | C0 [1, 2] | t1/2 (plasma half-life) [1, 2] [h] | AUC0-t ([1]; plasma, 15 mg/kg PO) | Cl/F_obs ([1]; plasma, 15 mg/kg PO) [mL/min/kg] | MRT ([1]; plasma, 15 mg/kg PO) [h] | Tmax ([1]; plasma, 15 mg/kg PO) [h] | Vz/F_obs ([1]; plasma, 15 mg/kg PO) [L/kg] | AUC0-t ([1]; plasma, 15 mg/kg SC) | Cl/F_obs ([1]; plasma, 15 mg/kg SC) [mL/min/kg] | MRT ([1]; plasma, 15 mg/kg SC) [h] | Vz/F_obs ([1]; plasma, 15 mg/kg SC) [L/kg] | also measured
Cc1ccc2c(C)c3c(c(O)c2c1O)C(=O)C1(O)C(=O)C(C(N)=O)=C(O)C(N)C1C3 (stereo not shown) [CDCHD, 2-carboxamido-2-deacetyl-chelocardin] | This was not the case for CDCHD | found at high concentrations | 6% and 5.9% | 24% and 23.5% | 13,229.0 ± 1,147.2 ng/mL*h | around 1.3 µg/mL | 16.0 ± 1.4 | 33.4 ± 8.0 | 33.4 ± 6.1 | 1,336.4 ± 523.5 ng/mL | 24.3 ± 5.2 | 780.9 ± 187.8 ng·h/mL | 294.3 ± 99.2 | 27.9 ± 7.1 | 7.3 ± 1.6 | 394.5 ± 122.6 | 3,109.3 ± 592.0 ng/mL*h | 34.5 | 57.3 | 119.2 | plasma concentrations of CDCHD relative to the active CHD ([1]; 15 mg/kg IV, time points > 24 hours, higher than active CHD): 10 fold; Cmax ([1]; plasma, 15 mg/kg SC, 15 mg/kg): 171 ng/mL and 171.7 ± 17.7 ng/mL; plasma levels at 30 mg/kg IV compared with 15 mg/kg IV [1]: increased plasma levels (by a factor of more than two); urine levels at 30 mg/kg IV compared with 15 mg/kg IV [1]: in a similar range; minimal bactericidal concentration (MBC) (K. pneumoniae ATCC 43816): 8 µg/mL (≈ 19.4 µM)
CC(=O)C1=C(O)[C@H](N)[C@@H]2Cc3c(c(O)c4c(O)c(C)ccc4c3C)C(=O)[C@]2(O)C1=O [CHD, chelocardin] | epimerization was also observed for CHD in plasma and to a lower extent in urine | already declined | 24% and 24.2% | 90% and 90.2% | 31,550.8 ± 2,722.6 ng/mL*h | more than 4 µg/mL | 7.9 ± 0.6 | 8.5 ± 0.2 | 5.6 ± 0.5 | 4,234.3 ± 1,737.1 ng/mL | 8.2 ± 0.3 | 7,636.3 ± 840.7 ng/mL*h | 31.0 ± 4.3 | 19.1 ± 4.1 | 3.3 ± 1.2 | 55.5 ± 14.5 | 28,457.0 ± 4,506.2 ng/mL*h | 8.1 ± 1.1 | 9.7 ± 1.8 | 4.8 ± 1.5 | Cmax of CHD relative to CDCHD ([1]; 15 mg/kg PO, higher than CDCHD): more than 15 times; plasma levels of CHD relative to CDCHD ([1]; 15 mg/kg SC, higher than CDCHD): around 10 fold; Cmax ([1]; plasma, 15 mg/kg PO): 460.5 ± 58.6 ng/mL; Cmax ([1]; plasma, 15 mg/kg SC): 2,109.3 ± 601.9 ng/mL; Tmax ([1]; plasma, 15 mg/kg SC): 4.0 ± 0.0 h; Cmax ([1]; plasma, 15 mg/kg SC (text)): around 2.1 µg/mL; plasma levels at 30 mg/kg IV compared with 15 mg/kg IV [1]: in a similar range as for the 15 mg/kg IV dose; urine levels at 30 mg/kg IV compared with 15 mg/kg IV [1]: increased urine levels; AUC of CHD relative to CDCHD ([1]; plasma, higher than CDCHD, stated in the 15 mg/kg SC paragraph): 3 times; minimal bactericidal concentration (MBC) (K. pneumoniae ATCC 43816): 16 µg/mL (≈ 38.9 µM)
